# Measurements taken from patent US4291036A, “Pyrido[1,2-A]pyrimidine derivatives and method of analgesic treatment” (priority 1977, dated 1981).
# Where a name gives a salt, the structure may show the parent alone. Read-outs that look alike come from different tables or passages of the source.
# Key:
# [1] = Toxicity (LD50; Litchfield and Wilcoxon); settings: in vivo
# Excerpt: Toxicity: Litchfield J. T. and Wilcoxon: J. Pharmacol. Sci 54 (1965) 888.
# [2] = Hot plate test (analgesia); assay type: in vivo, rats; settings: for ED50: Rattus norvegicus
# Protocol: (§1) The analgesic effect was tested on the hot-plate and algolytic tests.
# Hot plate test: Woolfe and McDonald J. Pharm. 80, 300 (1944) modified by Porszasz and Herr: Kiserletes Orvostudomany 2, 292 (1950).
# [3] = dog, in vivo
# Excerpt: Beagles are much more sensitive to CNS effects than rats, Rhesus monkeys and man.
# [4] = Inhibition of the CNS effects of Probon; settings: in vivo
# [5] = rat, in vivo
# [6] = Analgesic potency compared with Probon, dog; assay type: in vivo
# [7] = Analgesic potency compared with Probon, rat; assay type: in vivo
# [8] = Algolytic test (analgesia); assay type: in vivo; settings: for Algolytic test ED100: p.o.
# Protocol: as §1
# Algolytic test: J. Knoll et. al: Animal and Clinical Pharmacological Techniques in Drug Evaluation Eds. Siegler, P. E. and Meyer J. II. Year Book Medical Pub. Chicago (1967) pages 305-321.
# [9] = s.c.; Knoll et al. 1971; cited from earlier work
# [10] = s.c.; Knoll et al. 1971; cited from earlier work; remark: listed apart in the source
# [11] = Table I, route not given, read-out: LD50
# [12] = Table IV, rats, i.v., read-out: LD50 rats i.v.
# [13] = po, Table IV, rats, p.o., read-out: Hot plate test ED50 p.o.
# [14] = po, Table IV, rats, p.o., read-out: LD50 rats p.o.
# [15] = sc, Table IV, rats, s.c., read-out: LD50 rats s.c.
# [16] = sc, Table IV, rats, s.c., read-out: Hot plate test ED50 s.c.
# [17] = iv, Table IV, rats, i.v., read-out: Hot plate test ED50 i.v.
# [18] = iv, Table III, i.v., read-out: LD50 i.v.
# [19] = po, Table III, p.o., read-out: LD50 p.o.
# [20] = sc, Table III, s.c., read-out: LD50 s.c.
# [21] = po, Table II, p.o., read-out: Hot plate test ED50
# [22] = po, Table III, p.o., read-out: ED50 hot-plate p.o.
# [23] = sc, Table III, s.c., read-out: ED50 hot-plate s.c.
# [24] = iv, Table III, i.v., read-out: ED50 hot-plate i.v.
structure (smiles),measurement,setting,value
"Cc1nc2cccc(C)n2c(=O)c1C.Cl [2,3,6-trimethyl-4-oxo-4H-pyrido[1,2-a]pyrimidine hydrochloride]",LD50,[1]; [11],780 µmol/kg
same,LD50,[1]; [12],175 mg/kg
same,ED50,[2]; [13],87 mg/kg
"CCc1c(C)nc2cccc(C)n2c1=O [2,6-dimethyl-3-ethyl-4-oxo-4H-pyrido[1,2-a]pyrimidine]",CNS symptoms,[3],failing to elicit the CNS symptoms
same,inhibition of the CNS effects of Probon,[4],strongly inhibit the CNS effects of Probon
same,CNS symptoms,[5],failing to elicit the CNS symptoms
same,analgesic potency compared with Probon,[6],more potent analgesic than Probon
same,analgesic potency compared with Probon,[7],more potent analgesic than Probon
"CCCCc1c(C)nc2cccc(C)n2c1=O.Cl [2,6-dimethyl-3-n-butyl-4-oxo-4H-pyrido[1,2-a]pyrimidine hydrochloride]",LD50,[1]; [14],1100 mg/kg
same,ED50,[2]; [13],340 mg/kg
"CCCc1c(C)nc2cccc(C)n2c1=O.Cl [2,6-dimethyl-3-n-propyl-4-oxo-4H-pyrido[1,2-a]pyrimidine hydrochloride]",LD50,[1]; [14],1000 mg/kg
same,LD50,[1]; [15],1200 mg/kg
same,LD50,[1]; [11],316 µmol/kg
same,ED50,[2]; [16],48 mg/kg
"CCc1c(C)nc2ccc(C)cn2c1=O [2,7-dimethyl-3-ethyl-4-oxo-4H-pyrido[1,2-a]pyrimidine . HCl]",LD50,[1]; [14],900 mg/kg
same,LD50,[1]; [15],800 mg/kg
same,LD50,[1]; [12],175 mg/kg
same,ED50,[2]; [17],75 mg/kg
same,ED50,[2]; [13],500 mg/kg
same,ED50,[2]; [16],150 mg/kg
"CCc1c(C)nc2c(C)cccn2c1=O.Cl [2,9-dimethyl-3-ethyl-4-oxo-4H-pyrido[1,2-a]pyrimidine HCl]",LD50,[1]; [14],820 mg/kg
same,ED50,[2]; [13],310 mg/kg
"CCc1c(C)nc2ccc(Cl)cn2c1=O.Cl [2-methyl-3-ethyl-7-chloro-4-oxo-4H-pyrido[1,2-a]pyrimidine hydrochloride]",LD50,[1]; [14],1100 mg/kg
same,ED50,[2]; [13],98 mg/kg
"CCCCc1c(C)nc2ccccn2c1=O [2-methyl-3-n-butyl-4-oxo-4H-pyrido[1,2-a]pyrimidine . HCl]",LD50,[1]; [14],1100 mg/kg
same,ED50,[2]; [13],251 mg/kg
"CCCc1c(C)nc2ccccn2c1=O.Cl [2-methyl-3-n-propyl-4-oxo-4H-pyrido[1,2-a]pyrimidine hydrochloride]",LD50,[1]; [11],502 µmol/kg
"CCc1nc2cccc(C)n2c(=O)c1C.Cl [3,6-dimethyl-2-ethyl-4-oxo-4H-pyrido[1,2-a]pyrimidine hydrochloride]",LD50,[1]; [11],120 µmol/kg
"CCc1c(C)nc2cccc(C)n2c1=O.Cl [Compound A, 2,6-dimethyl-3-ethyl-4-oxo-4H-pyrido[1,2-a]pyrimidine hydrochloride]",LD50,[1]; [18],190 mg/kg
same,LD50,[1]; [19],690 mg/kg
same,LD50,[1]; [20],520 mg/kg
same,LD50,[1]; [11],796 µmol/kg
same,"algolytic (+5mg./kg morphine), result in words",[8]; Table III,effective per se
same,ED50 algolytic (+5mg./kg morphine),"[8]; Table III, s.c.",8.6 mg/kg
same,ED100,"[8]; po, Table II",420 mg/kg
same,ED50,[8]; sc,98 mg/kg
same,ED50,[2]; [21],68 mg/kg
same,ED50,[2]; [22],68 mg/kg
same,ED50,[2]; [13],68 mg/kg
same,ED50,[2]; [23],74 mg/kg
same,ED50,[2]; [16],74 mg/kg
same,ED50 hot-plate p.o.,"[2]; Table III, p.o., hydrochloride",58 mg/kg
"CCc1c(C)nc2ccccn2c1=O [Compound B, 2-methyl-3-ethyl-4-oxo-4H-pyrido[1,2-a]pyrimidine.HCl]",LD50,[1]; [18],280 mg/kg
same,LD50,[1]; [19],1000 mg/kg
same,LD50,[1]; [20],620 mg/kg
same,LD50,[1]; [11],1070 µmol/kg
same,Algolytic test ED100,[8]; Table II,cannot be achieved
same,ED50 algolytic (+5mg./kg morphine),"[8]; Table III, i.v.",2.75 mg/kg
same,ED50,[2]; [24],100 mg/kg
same,ED50,[2]; [17],100 mg/kg
same,ED50,[2]; [21],330 mg/kg
same,ED50,[2]; [22],300 mg/kg
same,ED50,[2]; [13],300 mg/kg
same,ED50,[2]; [23],180 mg/kg
same,ED50,[2]; [16],180 mg/kg
"CCc1c(C)nc2cc(C)cc(C)n2c1=O [Compound C, 2,6,8-trimethyl-3-ethyl-4-oxo-4H-pyrido[1,2-a]pyrimidine.HCl]",LD50,[1]; [18],120 mg/kg
same,LD50,[1]; [19],1500 mg/kg
same,LD50,[1]; [20],820 mg/kg
same,Algolytic test ED100,[8]; Table II,cannot be achieved
same,ED50,[2]; [24],49 mg/kg
same,ED50,[2]; [17],49 mg/kg
same,ED50,[2]; [21],580 mg/kg
same,ED50,[2]; [22],580 mg/kg
same,ED50,[2]; [13],580 mg/kg
same,ED50,[2]; [23],120 mg/kg
same,ED50,[2]; [16],120 mg/kg
"CCOC(=O)c1c[n+](C)c2n(c1=O)C(C)CCC2 (stereo not shown) [Probon, 1,6-dimethyl-3-ethoxycarbonyl-4-oxo-4H-6,7,8,9-tetrahydro-pyrido[1,2-a]pyrimidinium-methosulfate, reference compound]",dose eliciting characteristic desynchronization of the EEG,[9],≥ 250 mg/kg
same,dose causing death of the animal,[3]; po,300 mg/kg
same,"oral dose at which disturbances of coordination and behavior, ataxia appear",[3]; po,above 100 mg./kg. body weight
same,oral dose level at which CNS symptoms are very marked,[3]; po,150 to 200 mg/kg
same,LD50,"[1]; iv, read-out: LD50 rats i.v.",220 mg/kg
same,LD50,"[1]; po, read-out: LD50 rats p.o.",1600 mg/kg
same,LD50,[1]; read-out: LD50,607 µmol/kg
same,dose causing inhibition of the conditioned reflex,[10],≥ 250 mg/kg
same,ED50,[2]; [17],50 mg/kg
same,ED50,[2]; [13],220 mg/kg
